ChEMBL document CHEMBL4507327 (2021)

Legend:
[1] = target: Myosin light chain kinase (Homo sapiens, UniProt Q32MK0); assay: caMLCK(MYL3LGF1) Takeda global kinase panel
[2] = target: Serine/threonine-protein kinase PLK4 (Homo sapiens, UniProt O00444); assay: PLK4(PLK4LGF1) Takeda global kinase panel
[3] = target: Beta-2 adrenergic receptor (Homo sapiens) (UniProt P07550); conditions: Compound concentration 10.0 uM
[4] = target: Serine/threonine-protein kinase VRK1 (Homo sapiens, UniProt Q99986); assay: VRK1(VRK1LGRI) Takeda global kinase panel
[5] = target: Protein kinase C iota type (Homo sapiens, UniProt P41743); assay: PKCiota(PRKILGRD) Takeda global kinase panel
[6] = target: Sigma non-opioid intracellular receptor 1 (Homo sapiens) (UniProt Q99720); assay: Sigma 1 Eurofins-Panlabs radioligand binding assay; parameters: ligand concentration 15 nM; conditions: Compound concentration 10.0 uM
[7] = target: Histamine H3 receptor (Homo sapiens) (UniProt Q9Y5N1); conditions: Compound concentration 10.0 uM
[8] = target: NT-3 growth factor receptor (Homo sapiens, UniProt Q16288); assay: TRKC(NTR3LGN1) Takeda global kinase panel
[9] = target: Dual specificity mitogen-activated protein kinase kinase 1 (Homo sapiens, UniProt Q02750); assay: MEK1 [MAP2K1(M2K1LGF1)] Takeda global kinase panel
[10] = target: Macrophage colony-stimulating factor 1 receptor (Homo sapiens, UniProt P07333); assay: FmS [CSFR(CSF1LGC1)] Takeda global kinase panel
[11] = target: Androgen receptor (Homo sapiens) (UniProt P10275); conditions: Compound concentration 10.0 uM
[12] = target: Testis-specific serine/threonine-protein kinase 1 (Homo sapiens, UniProt Q9BXA7); assay: TSSK1(TS1BLGP1) Takeda global kinase panel
[13] = target: Dual specificity tyrosine-phosphorylation-regulated kinase 1A (Homo sapiens, UniProt Q13627); assay: DYRK1A(DY1ALGP1) Takeda global kinase panel
[14] = target: TGF-beta receptor type-2 (Homo sapiens, UniProt P37173); assay: TGFbetaR2(TGF2LGY1) Takeda global kinase panel
[15] = target: T1, 5-hydroxytryptamine receptor 3A (Homo sapiens) (UniProt P46098); assay: Inhibition of Serotonin (5-Hydroxytryptamine) 5-HT3 at 10 µM in the Eurofins-Panlabs radioligand binding assay (Eurofins_assay_271910); parameters: ligand concentration 0.69 nM; conditions: Compound concentration 10.0 uM
T1 sequence (whole entry): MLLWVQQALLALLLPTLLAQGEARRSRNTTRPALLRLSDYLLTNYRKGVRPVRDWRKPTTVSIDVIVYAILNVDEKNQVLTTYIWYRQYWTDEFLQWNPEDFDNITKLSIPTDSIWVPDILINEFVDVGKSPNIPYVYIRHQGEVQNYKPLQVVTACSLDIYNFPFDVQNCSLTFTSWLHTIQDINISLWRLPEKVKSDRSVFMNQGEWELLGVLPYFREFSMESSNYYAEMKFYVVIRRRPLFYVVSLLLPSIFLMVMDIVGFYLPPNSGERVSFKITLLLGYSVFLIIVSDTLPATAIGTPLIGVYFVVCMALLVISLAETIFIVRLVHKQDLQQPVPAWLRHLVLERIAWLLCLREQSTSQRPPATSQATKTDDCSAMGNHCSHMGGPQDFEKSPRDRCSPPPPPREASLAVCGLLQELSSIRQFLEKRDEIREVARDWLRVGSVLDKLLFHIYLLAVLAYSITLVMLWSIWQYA

[16] = target: Adenosine receptor A2a (Homo sapiens) (UniProt P29274); conditions: Compound concentration 10.0 uM
[17] = species on record: Rattus norvegicus; assay: Inhibition of Glutamate, NMDA, Phencyclidine at 10 µM in the Eurofins-Panlabs radioligand binding assay (Eurofins_assay_233000); format: protein-complex assay; conditions: Compound concentration 10.0 uM
[18] = target: Mitogen-activated protein kinase 13 (Homo sapiens, UniProt O15264); assay: p38delta(MP13LGP1) Takeda global kinase panel
[19] = target: Eukaryotic translation initiation factor 2-alpha kinase 3 (Homo sapiens, UniProt Q9NZJ5); assay: PERK [PEK(EIK3CGQ1)] Takeda global kinase panel
[20] = target: T2, Muscarinic acetylcholine receptor M1 (Homo sapiens) (UniProt P11229); conditions: Compound concentration 10.0 uM
T2 sequence (whole entry): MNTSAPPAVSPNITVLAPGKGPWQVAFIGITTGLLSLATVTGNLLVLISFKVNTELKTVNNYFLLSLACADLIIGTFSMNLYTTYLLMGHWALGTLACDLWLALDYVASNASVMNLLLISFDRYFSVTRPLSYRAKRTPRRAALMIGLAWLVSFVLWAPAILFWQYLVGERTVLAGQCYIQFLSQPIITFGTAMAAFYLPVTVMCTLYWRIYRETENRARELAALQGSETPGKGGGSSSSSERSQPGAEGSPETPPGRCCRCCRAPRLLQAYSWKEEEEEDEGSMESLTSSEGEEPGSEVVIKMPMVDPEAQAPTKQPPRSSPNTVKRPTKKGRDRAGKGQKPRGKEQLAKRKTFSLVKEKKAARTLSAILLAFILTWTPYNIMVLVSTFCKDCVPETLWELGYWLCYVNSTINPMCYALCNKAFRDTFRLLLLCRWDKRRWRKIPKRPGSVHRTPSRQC

[21] = target: Maternal embryonic leucine zipper kinase (Homo sapiens, UniProt Q14680); assay: MELK(MELKLGF1) Takeda global kinase panel
[22] = target: Vascular endothelial growth factor receptor 3 (Homo sapiens, UniProt P35916); assay: FLT4(FLT4LGY1) Takeda global kinase panel
[23] = target: Serine/threonine-protein kinase 32A (Homo sapiens, UniProt Q8WU08); assay: YANK1(S32APHY1) Takeda global kinase panel
[24] = target: Activin receptor type-1-like (Homo sapiens, UniProt P37023); assay: ALK1(ACL1LGF1) Takeda global kinase panel
[25] = target: Serine/threonine-protein kinase MARK1 (Homo sapiens, UniProt Q9P0L2); assay: MARK1(MAR1PHY1) Takeda global kinase panel
[26] = target: Casein kinase I isoform delta (Homo sapiens, UniProt P48730); assay: CK1delta(CS1DLGI1) Takeda global kinase panel
[27] = target: Serine/threonine-protein kinase H1 (Homo sapiens, UniProt P11801); assay: PSKH1(PSH1LGRH) Takeda global kinase panel
[28] = target: Cyclin-dependent kinase 18 (Homo sapiens, UniProt Q07002); assay: PCTAIRE3(CD18SGS1) Takeda global kinase panel
[29] = target: Serine/threonine-protein kinase Chk2 (Homo sapiens, UniProt O96017); assay: CHK2(CHE2LGY1) Takeda global kinase panel
[30] = target: Bromodomain-containing protein 4 (Homo sapiens, UniProt O60885); assay: BRD4(BRD4LGRC) Takeda global kinase panel
[31] = target: B2 bradykinin receptor (Homo sapiens) (UniProt P30411); conditions: Compound concentration 10.0 uM
[32] = target: Serine/threonine-protein kinase pim-1 (Homo sapiens, UniProt P11309); assay: Pim1(PIM1LGP1) Takeda global kinase panel
[33] = target: Serine/threonine-protein kinase PAK 4 (Homo sapiens, UniProt O96013); assay: PAK4(PAK4CGY1) Takeda global kinase panel

Chain of Eukaryotic translation initiation factor 2-alpha kinase 3 (Q9NZJ5 whole entry): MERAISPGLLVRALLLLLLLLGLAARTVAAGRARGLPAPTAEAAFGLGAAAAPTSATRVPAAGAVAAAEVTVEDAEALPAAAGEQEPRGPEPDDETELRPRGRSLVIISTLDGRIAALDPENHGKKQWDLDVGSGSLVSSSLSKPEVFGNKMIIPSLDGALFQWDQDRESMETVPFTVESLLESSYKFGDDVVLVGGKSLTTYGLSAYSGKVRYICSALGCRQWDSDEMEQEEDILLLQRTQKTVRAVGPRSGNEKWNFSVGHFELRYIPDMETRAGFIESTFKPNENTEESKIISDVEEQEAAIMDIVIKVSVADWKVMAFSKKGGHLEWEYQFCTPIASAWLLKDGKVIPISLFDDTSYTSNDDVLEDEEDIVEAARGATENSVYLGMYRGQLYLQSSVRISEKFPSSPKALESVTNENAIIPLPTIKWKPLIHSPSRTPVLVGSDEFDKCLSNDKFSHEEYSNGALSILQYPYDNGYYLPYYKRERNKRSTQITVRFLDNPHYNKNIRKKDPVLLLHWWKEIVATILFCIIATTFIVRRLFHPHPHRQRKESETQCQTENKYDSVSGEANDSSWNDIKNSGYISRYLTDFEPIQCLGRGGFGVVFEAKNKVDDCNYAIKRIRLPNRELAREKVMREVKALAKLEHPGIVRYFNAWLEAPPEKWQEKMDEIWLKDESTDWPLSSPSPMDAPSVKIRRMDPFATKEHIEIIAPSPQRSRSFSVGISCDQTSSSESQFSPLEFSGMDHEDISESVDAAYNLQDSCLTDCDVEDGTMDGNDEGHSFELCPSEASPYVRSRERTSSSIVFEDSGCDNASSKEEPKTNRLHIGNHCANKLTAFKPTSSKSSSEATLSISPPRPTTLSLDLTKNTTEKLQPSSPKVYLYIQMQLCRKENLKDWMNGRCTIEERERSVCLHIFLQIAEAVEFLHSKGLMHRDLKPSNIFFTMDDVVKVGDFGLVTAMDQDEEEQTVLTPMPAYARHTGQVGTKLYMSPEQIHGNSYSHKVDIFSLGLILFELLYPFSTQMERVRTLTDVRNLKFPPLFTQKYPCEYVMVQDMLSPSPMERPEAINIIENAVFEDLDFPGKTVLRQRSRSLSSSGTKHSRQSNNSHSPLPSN
Chain of Cyclin-dependent kinase 18 (Q07002 whole entry): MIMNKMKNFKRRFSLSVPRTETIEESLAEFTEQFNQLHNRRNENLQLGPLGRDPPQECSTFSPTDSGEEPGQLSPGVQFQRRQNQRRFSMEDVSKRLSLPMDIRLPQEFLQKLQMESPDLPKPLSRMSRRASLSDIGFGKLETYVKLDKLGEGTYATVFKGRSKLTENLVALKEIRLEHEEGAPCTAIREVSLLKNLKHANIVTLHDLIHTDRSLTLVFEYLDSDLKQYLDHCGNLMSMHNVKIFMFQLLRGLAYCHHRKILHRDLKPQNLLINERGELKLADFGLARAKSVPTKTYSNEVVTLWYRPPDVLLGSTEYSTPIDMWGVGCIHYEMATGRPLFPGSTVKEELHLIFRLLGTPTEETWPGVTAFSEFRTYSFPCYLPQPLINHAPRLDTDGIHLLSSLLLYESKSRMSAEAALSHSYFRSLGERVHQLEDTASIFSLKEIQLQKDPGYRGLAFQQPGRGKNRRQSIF
Chain of Serine/threonine-protein kinase PLK4 (O00444 whole entry): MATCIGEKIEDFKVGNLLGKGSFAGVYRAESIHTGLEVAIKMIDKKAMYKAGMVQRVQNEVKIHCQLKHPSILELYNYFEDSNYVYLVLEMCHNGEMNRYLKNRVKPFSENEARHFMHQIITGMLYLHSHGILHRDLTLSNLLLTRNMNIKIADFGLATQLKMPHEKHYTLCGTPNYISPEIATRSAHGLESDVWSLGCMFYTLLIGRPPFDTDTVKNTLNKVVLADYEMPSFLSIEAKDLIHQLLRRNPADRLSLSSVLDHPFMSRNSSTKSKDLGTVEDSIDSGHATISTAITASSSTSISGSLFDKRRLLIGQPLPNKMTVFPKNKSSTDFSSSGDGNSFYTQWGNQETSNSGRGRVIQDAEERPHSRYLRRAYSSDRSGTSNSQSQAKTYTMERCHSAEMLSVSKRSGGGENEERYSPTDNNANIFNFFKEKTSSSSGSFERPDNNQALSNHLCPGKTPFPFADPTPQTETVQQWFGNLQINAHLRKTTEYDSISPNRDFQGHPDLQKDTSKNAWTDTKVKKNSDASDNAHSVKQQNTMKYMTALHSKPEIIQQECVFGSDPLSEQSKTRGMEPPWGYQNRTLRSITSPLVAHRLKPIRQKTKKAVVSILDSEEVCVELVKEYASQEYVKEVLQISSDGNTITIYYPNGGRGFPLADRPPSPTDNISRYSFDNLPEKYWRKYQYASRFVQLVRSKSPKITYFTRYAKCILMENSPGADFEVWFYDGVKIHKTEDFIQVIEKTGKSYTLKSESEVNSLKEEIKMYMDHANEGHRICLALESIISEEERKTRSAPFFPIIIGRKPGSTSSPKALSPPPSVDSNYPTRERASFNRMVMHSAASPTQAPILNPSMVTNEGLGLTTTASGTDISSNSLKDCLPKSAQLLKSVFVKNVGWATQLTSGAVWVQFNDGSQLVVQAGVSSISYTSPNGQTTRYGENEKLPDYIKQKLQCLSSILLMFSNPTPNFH
Chain of Serine/threonine-protein kinase H1 (P11801 whole entry): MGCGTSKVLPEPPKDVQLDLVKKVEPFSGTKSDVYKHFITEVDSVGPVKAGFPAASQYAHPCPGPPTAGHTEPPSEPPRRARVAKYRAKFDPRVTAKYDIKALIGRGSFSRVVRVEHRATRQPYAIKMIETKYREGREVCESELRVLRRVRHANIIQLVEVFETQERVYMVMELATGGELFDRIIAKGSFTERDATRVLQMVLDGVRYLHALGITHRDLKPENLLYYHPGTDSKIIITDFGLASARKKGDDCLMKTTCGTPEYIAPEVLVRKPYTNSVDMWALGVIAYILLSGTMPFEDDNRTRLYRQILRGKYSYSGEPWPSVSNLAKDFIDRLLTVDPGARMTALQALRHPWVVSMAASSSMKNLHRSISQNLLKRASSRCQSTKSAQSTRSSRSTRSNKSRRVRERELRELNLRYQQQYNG
Chain of Androgen receptor (Homo sapiens) (P10275 whole entry): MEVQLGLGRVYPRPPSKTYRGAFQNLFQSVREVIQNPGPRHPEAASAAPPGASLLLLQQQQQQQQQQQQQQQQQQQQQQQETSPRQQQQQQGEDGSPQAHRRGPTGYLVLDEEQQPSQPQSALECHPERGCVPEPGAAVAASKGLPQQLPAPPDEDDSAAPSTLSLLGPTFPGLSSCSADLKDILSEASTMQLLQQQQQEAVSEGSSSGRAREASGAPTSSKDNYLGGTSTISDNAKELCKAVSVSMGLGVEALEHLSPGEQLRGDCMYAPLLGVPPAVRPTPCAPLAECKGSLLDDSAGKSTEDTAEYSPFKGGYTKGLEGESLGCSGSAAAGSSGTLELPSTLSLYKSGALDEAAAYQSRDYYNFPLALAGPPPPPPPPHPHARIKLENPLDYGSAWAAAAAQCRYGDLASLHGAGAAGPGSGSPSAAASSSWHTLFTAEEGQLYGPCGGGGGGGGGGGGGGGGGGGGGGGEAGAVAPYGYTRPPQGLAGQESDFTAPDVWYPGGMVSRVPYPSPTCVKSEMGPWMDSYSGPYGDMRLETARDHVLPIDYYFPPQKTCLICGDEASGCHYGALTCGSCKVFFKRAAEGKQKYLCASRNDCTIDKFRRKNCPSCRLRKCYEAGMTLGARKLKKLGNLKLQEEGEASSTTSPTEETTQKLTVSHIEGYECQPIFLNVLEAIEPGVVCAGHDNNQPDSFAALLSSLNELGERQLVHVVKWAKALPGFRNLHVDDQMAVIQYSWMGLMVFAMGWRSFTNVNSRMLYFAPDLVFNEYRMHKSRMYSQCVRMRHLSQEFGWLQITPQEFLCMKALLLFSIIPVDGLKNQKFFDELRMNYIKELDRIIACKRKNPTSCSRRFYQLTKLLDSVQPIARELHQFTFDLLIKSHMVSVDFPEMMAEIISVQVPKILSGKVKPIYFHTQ
Chain of Maternal embryonic leucine zipper kinase (Q14680 whole entry): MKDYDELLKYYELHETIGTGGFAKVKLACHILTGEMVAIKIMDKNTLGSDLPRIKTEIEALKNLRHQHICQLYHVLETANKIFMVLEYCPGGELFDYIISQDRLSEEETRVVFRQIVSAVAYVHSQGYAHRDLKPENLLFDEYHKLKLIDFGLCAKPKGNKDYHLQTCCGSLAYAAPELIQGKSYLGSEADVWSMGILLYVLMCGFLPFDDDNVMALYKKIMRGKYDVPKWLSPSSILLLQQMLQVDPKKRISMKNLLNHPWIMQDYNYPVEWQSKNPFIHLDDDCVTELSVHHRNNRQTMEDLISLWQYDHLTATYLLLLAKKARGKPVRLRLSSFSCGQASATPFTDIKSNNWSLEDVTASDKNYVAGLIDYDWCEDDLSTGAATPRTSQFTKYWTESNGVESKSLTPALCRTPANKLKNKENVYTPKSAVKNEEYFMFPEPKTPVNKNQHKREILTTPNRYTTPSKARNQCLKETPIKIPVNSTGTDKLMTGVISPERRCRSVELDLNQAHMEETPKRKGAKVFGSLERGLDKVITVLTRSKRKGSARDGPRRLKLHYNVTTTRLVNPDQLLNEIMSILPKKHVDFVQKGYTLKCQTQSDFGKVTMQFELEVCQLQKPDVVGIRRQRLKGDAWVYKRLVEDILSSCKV
Chain of Serine/threonine-protein kinase pim-1 (P11309 whole entry): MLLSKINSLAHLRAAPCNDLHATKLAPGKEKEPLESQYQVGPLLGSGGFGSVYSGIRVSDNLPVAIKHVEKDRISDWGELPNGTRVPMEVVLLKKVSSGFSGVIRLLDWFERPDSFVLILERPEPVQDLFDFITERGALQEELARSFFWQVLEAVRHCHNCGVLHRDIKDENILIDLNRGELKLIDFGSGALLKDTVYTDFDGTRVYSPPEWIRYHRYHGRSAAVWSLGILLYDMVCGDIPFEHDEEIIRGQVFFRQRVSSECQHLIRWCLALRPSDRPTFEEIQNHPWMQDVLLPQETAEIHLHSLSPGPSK

Structure (SMILES)	IC50 [1] [nM]	IC50 [2] [nM]	inhibition [3] [%]	IC50 [4] [nM]	IC50 [5] [nM]	inhibition [6] [%]	inhibition [7] [%]	IC50 [8] [nM]	IC50 [9] [nM]	IC50 [10] [nM]	inhibition [11] [%]	IC50 [12] [nM]	IC50 [13] [nM]	IC50 [14] [nM]	inhibition [15] [%]	inhibition [16] [%]	inhibition [17] [%]	IC50 [18] [nM]	IC50 [19] [nM]	inhibition [20] [%]	also measured
CN1C(=O)[C@@H](N2CCc3cn(Cc4ccccc4)nc3C2=O)COc2ccccc21 [TP-030-1]	1000	1000	-4	1000	1000	27	4	1000	1000	1000	6	1000	1000	1000	6	10	-8	1000	1000	0	IC50 [21]: 1000 nM; IC50 [22]: 1000 nM; IC50 [23]: 1000 nM; IC50 [24]: 1000 nM; IC50 [25]: 1000 nM; IC50 [26]: 1000 nM; IC50 [27]: 1000 nM; IC50 [28]: 1000 nM; IC50 [29]: 1000 nM; IC50 [30]: 1000 nM; inhibition [31]: 4%; IC50 [32]: 1000 nM; IC50 [33]: 1000 nM
CN1C(=O)[C@@H](N2CCc3cn(CC4CCS(=O)(=O)CC4)nc3C2=O)COc2ccccc21 [TP-030n]	1000	1000	4	1000	1000	11	-5	1000	1000	1000	0	1000	1000	1000	16	-8	-9	1000	1000	2	IC50 [21]: 1000 nM; IC50 [22]: 1000 nM; IC50 [23]: 1000 nM; IC50 [24]: 1000 nM; IC50 [25]: 1000 nM; IC50 [26]: 1000 nM; IC50 [27]: 1000 nM; IC50 [28]: 1000 nM; IC50 [29]: 1000 nM; IC50 [30]: 1000 nM; inhibition [31]: -4%; IC50 [32]: 1000 nM; IC50 [33]: 1000 nM
